From ChEMBL document CHEMBL3124777, “Synthesis and biological evaluation of thiazoline derivatives as new antimicrobial and anticancer agents” (Eur J Med Chem, 2014)
Converted amounts (≈) assume the structure as drawn.

Key:
C6 [1] = experiment: Cytotoxicity against rat C6 cells after 24 hrs by MTT assay; format: functional, cell-based; conditions: C6, 24 h
NIH3T3 = experiment: Cytotoxicity against mouse NIH/3T3 cells after 24 hrs by MTT assay; format: cell-based; conditions: NIH3T3, 24 h
C6 [2] = experiment: Cytotoxicity against rat C6 cells assessed as cell viability at 200 ug/ml after 24 hrs by MTT assay relative to control; format: functional; conditions: C6, 24 h, read-out: Activity
C6 [3] = experiment: Cytotoxicity against rat C6 cells assessed as cell viability at 100 ug/ml after 24 hrs by MTT assay relative to control; format: functional; conditions: C6, 24 h, read-out: Activity
C6 [4] = experiment: Cytotoxicity against rat C6 cells assessed as cell viability at 50 ug/ml after 24 hrs by MTT assay relative to control; format: functional; conditions: C6, 24 h, read-out: Activity
C6 [5] = experiment: Cytotoxicity against rat C6 cells assessed as cell viability at 25 ug/ml after 24 hrs by MTT assay relative to control; format: functional; conditions: C6, 24 h, read-out: Activity
C6 [6] = experiment: Cytotoxicity against rat C6 cells assessed as cell viability at 12 ug/ml after 24 hrs by MTT assay relative to control; format: functional; conditions: C6, 24 h, read-out: Activity
C6 [7] = experiment: Cytotoxicity against rat C6 cells assessed as cell viability at 6 ug/ml after 24 hrs by MTT assay relative to control; format: functional; conditions: C6, 24 h, read-out: Activity
Candida albicans = experiment: Antimicrobial activity against Candida albicans ATCC 22019 after 18 to 24 hrs by microbroth dilution method; format: functional
Fusarium culmorum = experiment: Antimicrobial activity against wild type Fusarium culmorum after 48 to 72 hrs by microbroth dilution method; format: functional
Fusarium verticillioides = experiment: Antimicrobial activity against Fusarium moniliforme NRRL 1866 after 48 to 72 hrs by microbroth dilution method; format: functional
Fusarium solani = experiment: Antimicrobial activity against Fusarium solani NRRL 13414 after 48 to 72 hrs by microbroth dilution method; format: functional
Aspergillus ochraceus = experiment: Antimicrobial activity against Aspergillus ochraceus NRRL 3174 after 48 to 72 hrs by microbroth dilution method; format: functional
Trichoderma harzianum = experiment: Antimicrobial activity against Trichoderma harzianum NRRL 20565 after 48 to 72 hrs by microbroth dilution method; format: functional
Penicillium chrysogenum = experiment: Antimicrobial activity against Penicillium chrysogenum NRRL 1951 after 48 to 72 hrs by microbroth dilution method; format: functional
Aspergillus parasiticus = experiment: Antimicrobial activity against Aspergillus parasiticus NRRL 465 after 48 to 72 hrs by microbroth dilution method; format: functional
Bacillus subtilis = experiment: Antimicrobial activity against Bacillus subtilis NRS-744 after 18 to 24 hrs by microbroth dilution method; format: functional
Micrococcus luteus = experiment: Antimicrobial activity against Micrococcus luteus NRLL B-4375 after 18 to 24 hrs by microbroth dilution method; format: functional
Pseudomonas aeruginosa = experiment: Antimicrobial activity against Pseudomonas aeruginosa […] after 18 to 24 hrs by microbroth dilution method; format: functional
Escherichia coli = experiment: Antimicrobial activity against Escherichia coli ATCC 25922 after 18 to 24 hrs by microbroth dilution method; format: functional
Listeria monocytogenes = experiment: Antimicrobial activity against Listeria monocytogenes ATCC 7644 after 18 to 24 hrs by microbroth dilution method; format: functional
Staphylococcus aureus = experiment: Antimicrobial activity against Staphylococcus aureus NRRL B-767 after 18 to 24 hrs by microbroth dilution method; format: functional

MIC (Candida albicans) [µg/mL]	MIC (Fusarium culmorum) [µg/mL]	MIC (Fusarium verticillioides) [µg/mL]	MIC (Fusarium solani) [µg/mL]	MIC (Aspergillus ochraceus) [µg/mL]	MIC (Trichoderma harzianum) [µg/mL]	MIC (Penicillium chrysogenum) [µg/mL]	MIC (Aspergillus parasiticus) [µg/mL]	MIC (Bacillus subtilis) [µg/mL]	MIC (Micrococcus luteus) [µg/mL]	MIC (Pseudomonas aeruginosa) [µg/mL]	MIC (Escherichia coli) [µg/mL]	MIC (Listeria monocytogenes) [µg/mL]	MIC (Staphylococcus aureus) [µg/mL]	Compound	IC50 (C6 [1]) [µg/mL]	IC50 (NIH3T3) [µg/mL]	viability at 200 µg/mL (C6 [2]) [%]	viability at 100 µg/mL (C6 [3]) [%]	viability at 50 µg/mL (C6 [4]) [%]	viability at 25 µg/mL (C6 [5]) [%]	also measured
250 (≈ 571 µM)	250 (≈ 571 µM)	250 (≈ 571 µM)	250 (≈ 571 µM)	250 (≈ 571 µM)	250 (≈ 571 µM)	250 (≈ 571 µM)	250 (≈ 571 µM)	500 (≈ 1140 µM)	250 (≈ 571 µM)	250 (≈ 571 µM)	250 (≈ 571 µM)	250 (≈ 571 µM)	500 (≈ 1140 µM)	O=C(CSc1ncccn1)N/N=c1/scc(-c2ccc(F)cc2)n1-c1ccccc1	110 (≈ 251 µM)	> 500	32.2	53.4	55.5	63.9	viability at 12 µg/mL (C6 [6]): 77.4%; viability at 6 µg/mL (C6 [7]): 84%
250 (≈ 556 µM)	250 (≈ 556 µM)	250 (≈ 556 µM)	250 (≈ 556 µM)	250 (≈ 556 µM)	250 (≈ 556 µM)	250 (≈ 556 µM)	250 (≈ 556 µM)	250 (≈ 556 µM)	250 (≈ 556 µM)	250 (≈ 556 µM)	250 (≈ 556 µM)	250 (≈ 556 µM)	250 (≈ 556 µM)	COc1ccc(-c2cs/c(=N/NC(=O)CSc3ncccn3)n2-c2ccccc2)cc1	102 (≈ 226 µM)	450 (≈ 1000 µM)	37.6	51.5	66.5	74	viability at 12 µg/mL (C6 [6]): 78.4%; viability at 6 µg/mL (C6 [7]): 89.6%
250 (≈ 577 µM)	250 (≈ 577 µM)	250 (≈ 577 µM)	250 (≈ 577 µM)	250 (≈ 577 µM)	250 (≈ 577 µM)	250 (≈ 577 µM)	250 (≈ 577 µM)	500 (≈ 1150 µM)	250 (≈ 577 µM)	250 (≈ 577 µM)	250 (≈ 577 µM)	250 (≈ 577 µM)	250 (≈ 577 µM)	Cc1ccc(-c2cs/c(=N/NC(=O)CSc3ncccn3)n2-c2ccccc2)cc1	85 (≈ 196 µM)	> 500	43.7	45.9	64.4	82.7	viability at 12 µg/mL (C6 [6]): 83%; viability at 6 µg/mL (C6 [7]): 93.2%
250 (≈ 571 µM)	125 (≈ 286 µM)	250 (≈ 571 µM)	250 (≈ 571 µM)	250 (≈ 571 µM)	125 (≈ 286 µM)	250 (≈ 571 µM)	250 (≈ 571 µM)	500 (≈ 1140 µM)	250 (≈ 571 µM)	250 (≈ 571 µM)	250 (≈ 571 µM)	250 (≈ 571 µM)	250 (≈ 571 µM)	Cc1ccc(-c2cs/c(=N/NC(=O)CSc3nnnn3C)n2-c2ccccc2)cc1	36.3 (≈ 83 µM)	243 (≈ 556 µM)	39.7	39.7	44.3	60.7	viability at 12 µg/mL (C6 [6]): 68.8%; viability at 6 µg/mL (C6 [7]): 88%
250 (≈ 559 µM)	250 (≈ 559 µM)	250 (≈ 559 µM)	250 (≈ 559 µM)	250 (≈ 559 µM)	125 (≈ 279 µM)	250 (≈ 559 µM)	250 (≈ 559 µM)	250 (≈ 559 µM)	250 (≈ 559 µM)	250 (≈ 559 µM)	250 (≈ 559 µM)	250 (≈ 559 µM)	250 (≈ 559 µM)	Cn1cnnc1SCC(=O)N/N=c1/scc(-c2ccc(C#N)cc2)n1-c1ccccc1	> 200	153 (≈ 343 µM)	52.6	55.2	58.8	58.8	viability at 12 µg/mL (C6 [6]): 62.6%; viability at 6 µg/mL (C6 [7]): 70.2%
250 (≈ 481 µM)	250 (≈ 481 µM)	250 (≈ 481 µM)	250 (≈ 481 µM)	250 (≈ 481 µM)	125 (≈ 240 µM)	250 (≈ 481 µM)	250 (≈ 481 µM)	250 (≈ 481 µM)	125 (≈ 240 µM)	125 (≈ 240 µM)	125 (≈ 240 µM)	250 (≈ 481 µM)	250 (≈ 481 µM)	O=C(CSc1nnnn1-c1ccccc1)N/N=c1/scc(-c2ccc(Cl)cc2)n1-c1ccccc1	> 200	313 (≈ 602 µM)	52.4	54.3	60	62.3	viability at 12 µg/mL (C6 [6]): 69.3%; viability at 6 µg/mL (C6 [7]): 77.4%
250 (≈ 534 µM)	250 (≈ 534 µM)	250 (≈ 534 µM)	250 (≈ 534 µM)	250 (≈ 534 µM)	125 (≈ 267 µM)	250 (≈ 534 µM)	250 (≈ 534 µM)	500 (≈ 1070 µM)	250 (≈ 534 µM)	250 (≈ 534 µM)	250 (≈ 534 µM)	250 (≈ 534 µM)	250 (≈ 534 µM)	Cn1nnnc1SCC(=O)N/N=c1/scc(-c2ccc([N+](=O)[O-])cc2)n1-c1ccccc1	> 200	167 (≈ 356 µM)	58.6	64.1	69.2	69.3	viability at 12 µg/mL (C6 [6]): 76.2%; viability at 6 µg/mL (C6 [7]): 80.4%
250 (≈ 551 µM)	250 (≈ 551 µM)	250 (≈ 551 µM)	250 (≈ 551 µM)	250 (≈ 551 µM)	250 (≈ 551 µM)	250 (≈ 551 µM)	250 (≈ 551 µM)	500 (≈ 1100 µM)	250 (≈ 551 µM)	250 (≈ 551 µM)	250 (≈ 551 µM)	250 (≈ 551 µM)	500 (≈ 1100 µM)	O=C(CSc1ncccn1)N/N=c1/scc(-c2ccc(Cl)cc2)n1-c1ccccc1	83.3 (≈ 183 µM)	397 (≈ 874 µM)	39.7	45.5	61.8	91.1	viability at 12 µg/mL (C6 [6]): 91.6%; viability at 6 µg/mL (C6 [7]): 95.9%
250 (≈ 592 µM)	250 (≈ 592 µM)	250 (≈ 592 µM)	250 (≈ 592 µM)	250 (≈ 592 µM)	125 (≈ 296 µM)	250 (≈ 592 µM)	250 (≈ 592 µM)	250 (≈ 592 µM)	250 (≈ 592 µM)	250 (≈ 592 µM)	250 (≈ 592 µM)	250 (≈ 592 µM)	250 (≈ 592 µM)	Cn1cnnc1SCC(=O)N/N=c1/scc(-c2ccccc2)n1-c1ccccc1	68.3 (≈ 162 µM)	217 (≈ 513 µM)	35.5	38.6	62.4	77.3	viability at 12 µg/mL (C6 [6]): 79.6%; viability at 6 µg/mL (C6 [7]): 90%
250 (≈ 498 µM)	125 (≈ 249 µM)	250 (≈ 498 µM)	250 (≈ 498 µM)	250 (≈ 498 µM)	125 (≈ 249 µM)	250 (≈ 498 µM)	250 (≈ 498 µM)	250 (≈ 498 µM)	125 (≈ 249 µM)	250 (≈ 498 µM)	250 (≈ 498 µM)	250 (≈ 498 µM)	250 (≈ 498 µM)	Cn1nnnc1SCC(=O)N/N=c1/scc(-c2ccc(Br)cc2)n1-c1ccccc1		19.3 (≈ 38.4 µM)					
250 (≈ 471 µM)	250 (≈ 471 µM)	250 (≈ 471 µM)	250 (≈ 471 µM)	250 (≈ 471 µM)	125 (≈ 236 µM)	250 (≈ 471 µM)	250 (≈ 471 µM)	250 (≈ 471 µM)	500 (≈ 942 µM)	250 (≈ 471 µM)	250 (≈ 471 µM)	250 (≈ 471 µM)	250 (≈ 471 µM)	O=C(CSc1nnnn1-c1ccccc1)N/N=c1/scc(-c2ccc([N+](=O)[O-])cc2)n1-c1ccccc1		14.3 (≈ 27 µM)					
